According to patent US6723722B1, “Acylhydrazine derivatives, their production and use” (Takeda Chemical Industries, Ltd., priority 1999, dated 2004):
pIC50: −log10 of the molar value.

Target: human FXa (Homo sapiens, UniProt P00742)
Assay: Human activated coagulation factor X (FXa) inhibiting effect
Format: biochemical
Conditions: concentration at which the FXa effect was inhibited by 50%; substrate S-2765, 37° C., absorbance at 405 nm
Method: (1) Human Activated Coagulation Factor X (FXa) Inhibiting Effect
Method: A cuvette was charged with 225 μl of 0.05 M tris buffer (pH 8.3) containing 0.145 M sodium chloride and 2 mM calcium chloride, 5 μl of a sample (test compound dissolved in dimethyl sulfoxide) and 10 μl of human FXa (0.3 unit/ml), which were reacted at 37° C. for 10 minutes and then combined with 10 μl of a substrate (3 mM, S-2765) and further reacted at 37° C. for 10 minutes. hen the reaction was terminated by adding 25 μl of 50% aqueous acetic acid, and the change in the absorbance at 405 nm was determined using a spectrophotometer to calculate the concentration at which the FXa effect was inhibited by 50% (IC50)

Sequence of human FXa (P00742 235-488 limits assumed): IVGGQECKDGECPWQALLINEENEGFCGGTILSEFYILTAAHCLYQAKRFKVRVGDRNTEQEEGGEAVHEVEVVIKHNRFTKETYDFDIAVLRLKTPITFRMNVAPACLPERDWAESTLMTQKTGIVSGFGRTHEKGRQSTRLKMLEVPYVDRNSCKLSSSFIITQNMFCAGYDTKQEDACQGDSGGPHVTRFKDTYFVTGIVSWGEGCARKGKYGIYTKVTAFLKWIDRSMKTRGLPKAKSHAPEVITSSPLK
Sequence of human FXa (P00742 41-179 partner limits assumed): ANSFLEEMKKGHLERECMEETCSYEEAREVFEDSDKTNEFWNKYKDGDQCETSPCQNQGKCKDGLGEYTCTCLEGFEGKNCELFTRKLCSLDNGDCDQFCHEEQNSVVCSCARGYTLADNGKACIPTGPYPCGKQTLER

pIC50: 8.24
SMILES: O=C1CN(S(=O)(=O)C2=Cc3ccc(Cl)cc3OC2)CCN1NC1CCN(c2ccncc2)CC1 [Example 6]
